Measured values as given in patent publication US11267825B2 (AICURIS GMBH & CO. KG, priority 2017, dated 2022).
pEC50, pIC50: −log10 of the molar value. Read-outs that look alike come from different tables or passages of the source.

Legend:
HBV = experiment: Determination of HBV DNA from the supernatants of HepAD38 cells (anti-HBV activity); format: cell-based, hepatitis B virus; settings: Hepatitis B virus, read-out: Cell Activity (EC50)
How it was run: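 HepAD38 cells (60,000/well) were treated with half-log compound dilutions in tetracycline-free medium to induce HBV production. On day 6, HBV DNA was purified from filtered supernatant and quantified by real-time PCR against plasmid standards. EC50 values came from non-linear regression of relative copy numbers, typically from three experiments in triplicate.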

HBV core protein = HBV core protein (UniProt P03146); format: biochemical; settings: read-out: Assembly Activity (IC50); BODIPY-FL labelled core protein, assembly started with NaCl, read after 6 min
Chain of HBV core protein (P03146 whole entry, looked up): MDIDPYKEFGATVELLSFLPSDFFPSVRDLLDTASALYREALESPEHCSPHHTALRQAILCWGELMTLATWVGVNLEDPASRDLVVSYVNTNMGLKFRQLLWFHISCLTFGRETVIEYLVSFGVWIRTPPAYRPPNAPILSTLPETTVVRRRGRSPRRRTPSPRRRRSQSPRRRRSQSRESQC
How it was run: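 Fluorescence-quenching assembly assay using E. coli-expressed core protein 1–149 plus Cys150, labelled with BODIPY-FL maleimide, at 1.0–2.0 μM in 50 mM HEPES pH 7.5, 0.5% DMSO. Assembly started with NaCl to […]; fluorescence (ex 477/em 525 nm) read after 6 min. EC50 by non-linear regression, 8-point 0.5-log dilutions.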

[1] = 144 h, HBV DNA in HepAD38 supernatant at day 6

SMILES	pEC50 (HBV; [1])	pIC50 (HBV core protein)	pEC50 (HBV; HePAD38, 144 h)
Nc1nc2c(s1)CN(C(=O)c1cc3c(C(F)(F)F)cccc3[nH]1)CC2 [Example 146, 5-(4-(trifluoromethyl)-1H-indole-2-carbonyl)-4H,5H,6H,7H-[1,3]thiazolo[5,4-c]pyridin-2-amine]	> 6.00	> 5.30	–
CN(C)CC(=O)Nc1nc2c(s1)CN(C(=O)c1cc3ccccc3[nH]1)CC2 [Example 62, 2-(dimethylamino)-N-[5-(1H-indole-2-carbonyl)-4H,5H,6H,7H-[1,3]thiazolo[5,4-c]pyridin-2-yl]acetamide]	> 6.00	5.00 to 5.30	–
CCOC(=O)N1CCC(Nc2nc3c(s2)CN(C(=O)c2cc4ccccc4[nH]2)CC3)CC1 [Example 5, Ethyl 4-{[5-(1H-indole-2-carbonyl)-4H,5H,6H,7H-[1,3]thiazolo[5,4-c]pyridin-2-yl]amino}piperidine-1-carboxylate]	> 6.00	5.00 to 5.30	–
O=C(c1cc2ccc(Cl)cc2[nH]1)N1CCc2nc(NC3(CO)CCC3)sc2C1 [Example 299, (1-{[5-(6-chloro-1H-indole-2-carbonyl)-4H,5H,6H,7H-[1,3]thiazolo[5,4-c]pyridin-2-yl]amino}cyclobutyl)methanol]	> 6.00	> 5.30	–
O=C(c1cc2ccccc2[nH]1)N1CCc2ncsc2C1 [Example 200, 2-{4H,5H,6H,7H-[1,3]thiazolo[5,4-c]pyridine-5-carbonyl}-1H-indole]	5.00 to 6.00	> 5.30	–
N#CC1(C(=O)Nc2nc3c(s2)CN(C(=O)c2cc4ccccc4[nH]2)CC3)CC1 [Example 336, 1-cyano-N-[5-(1H-indole-2-carbonyl)-4H,5H,6H,7H-[1,3]thiazolo[5,4-c]pyridin-2-yl]cyclopropane-1-carboxamide]	> 6.00	5.00 to 5.30	–
Nc1nc2c(s1)CN(C(=O)c1cc3c(F)cc(Cl)cc3[nH]1)CC2 [Example 147, 5-(6-chloro-4-fluoro-1H-indole-2-carbonyl)-4H,5H,6H,7H-[1,3]thiazolo[5,4-c]pyridin-2-amine]	> 6.00	> 5.30	–
CC(=O)NNc1nc2c(s1)CN(C(=O)c1cc3ccccc3[nH]1)CC2 [Example 58, N′-[5-(1H-indole-2-carbonyl)-4H,5H,6H,7H-[1,3]thiazolo[5,4-c]pyridin-2-yl]acetohydrazide]	5.00 to 6.00	5.00 to 5.30	–
CC(C)(CC(=O)Nc1nc2c(s1)CN(C(=O)c1cc3ccccc3[nH]1)CC2)C1CC1 [Example 261, 3-cyclopropyl-N-[5-(1H-indole-2-carbonyl)-4H,5H,6H,7H-[1,3]thiazolo[5,4-c]pyridin-2-yl]-3-methylbutanamide]	> 6.00	> 4.00	–
O=C(c1cc2ccccc2[nH]1)N1CCc2nc(N[C@H]3COCC[C@@H]3O)sc2C1 (racemic) [Example 339, (±)-3-{[5-(1H-indole-2-carbonyl)-4H,5H,6H,7H-[1,3]thiazolo[5,4-c]pyridin-2-yl]amino}oxan-4-ol]	> 6.00	5.00 to 5.30	–
CC(O)c1cccc2[nH]c(C(=O)N3CCc4nc(N)sc4C3)cc12 (centres unmarked) [Example 10, 1-(2-{2-amino-4H,5H,6H,7H-[1,3]thiazolo[5,4-c]pyridine-5-carbonyl}-1H-indol-4-yl)ethan-1-ol]	5.00 to 6.00	> 4.00	–
O=C(c1cc2c(F)cc(F)cc2[nH]1)N1CCc2nc(NCC3(O)CCC3)sc2C1 [Example 314, 1-({[5-(4,6-difluoro-1H-indole-2-carbonyl)-4H,5H,6H,7H-[1,3]thiazolo[5,4-c]pyridin-2-yl]amino}methyl)cyclobutan-1-ol]	> 6.00	> 5.30	–
CCc1cc(F)cc2[nH]c(C(=O)N3CCc4nc(NC[C@H]5CCOC5)sc4C3)cc12 [Example 329, 5-(4-ethyl-6-fluoro-1H-indole-2-carbonyl)-N-{[(3R)-oxolan-3-yl]methyl}-4H,5H,6H,7H-[1,3]thiazolo[5,4-c]pyridin-2-amine]	> 6.00	> 5.30	–
CCc1cc(F)cc2[nH]c(C(=O)N3CCc4nc(NCC5(O)CCC5)sc4C3)cc12 [Example 363, 1-({[5-(4-ethyl-6-fluoro-1H-indole-2-carbonyl)-4H,5H,6H,7H-[1,3]thiazolo[5,4-c]pyridin-2-yl]amino}methyl)cyclobutan-1-ol]	> 6.00	> 5.30	–
O=C(c1cc2c(Cl)cc(F)cc2[nH]1)N1CCc2nc(NC3(CO)CCC3)sc2C1 [Example 223, (1-{[5-(4-chloro-6-fluoro-1H-indole-2-carbonyl)-4H,5H,6H,7H-[1,3]thiazolo[5,4-c]pyridin-2-yl]amino}cyclobutyl)methanol]	> 6.00	> 5.30	–
CC(C)OC(=O)[C@H](C)NP(=O)(OCCNc1nc2c(s1)CN(C(=O)c1cc3c(F)cc(F)cc3[nH]1)CC2)Oc1ccccc1 (stereo partly drawn) [Example 100, Propan-2-yl (2S)-2-{[(2-{[5-(4,6-difluoro-1H-indole-2-carbonyl)-4H,5H,6H,7H-[1,3]thiazolo[5,4-c]pyridin-2-yl]amino}ethoxy)(phenoxy)phosphoryl]amino}propanoate]	–	> 4.00	5.00 to 6.00

SMILES	pEC50 (HBV; [1])	pIC50 (HBV core protein)	pEC50 (HBV; HePAD38, 144 h)
O=C(c1cc2c(CO)cccc2[nH]1)N1CCc2nc(NCC3(O)CCC3)sc2C1 [Example 367, 1-[({5-[4-(hydroxymethyl)-1H-indole-2-carbonyl]-4H,5H,6H,7H-[1,3]thiazolo[5,4-c]pyridin-2-yl}amino)methyl]cyclobutan-1-ol]	> 6.00	> 4.00	–
Cc1ccc2cc(C(=O)N3CCc4nc(N)sc4C3)[nH]c2c1 [Example 150, 5-(6-methyl-1H-indole-2-carbonyl)-4H,5H,6H,7H-[1,3]thiazolo[5,4-c]pyridin-2-amine]	> 6.00	> 5.30	–
O=C(c1cc2c(F)c(F)ccc2[nH]1)N1CCc2nc(NCC3CCOC3)sc2C1 (centres unmarked) [Example 112, 5-(4,5-difluoro-1H-indole-2-carbonyl)-N-[(oxolan-3-yl)methyl]-4H,5H,6H,7H-[1,3]thiazolo[5,4-c]pyridin-2-amine]	> 6.00	> 5.30	–
Nc1nc2c(s1)CN(C(=O)c1cc3c(Cl)c(Cl)ccc3[nH]1)CC2 [Example 176, 5-(4,5-dichloro-1H-indole-2-carbonyl)-4H,5H,6H,7H-[1,3]thiazolo[5,4-c]pyridin-2-amine]	5.00 to 6.00	5.00 to 5.30	–
O=C(c1cc2ccc(Cl)cc2[nH]1)N1CCc2nc(NCC3(O)CCC3)sc2C1 [Example 331, 1-({[5-(6-chloro-1H-indole-2-carbonyl)-4H,5H,6H,7H-[1,3]thiazolo[5,4-c]pyridin-2-yl]amino}methyl)cyclobutan-1-ol]	> 6.00	5.00 to 5.30	–
O=C(c1cc2ccccc2[nH]1)N1CCc2nc(N3CCOCC3)sc2C1 [Example 166, 2-[2-(morpholin-4-yl)-4H,5H,6H,7H-[1,3]thiazolo[5,4-c]pyridine-5-carbonyl]-1H-indole]	5.00 to 6.00	> 4.00	–
CN(C)c1nc2c(s1)CN(C(=O)c1cc3c(Cl)cc(F)cc3[nH]1)CC2 [Example 209, 5-(4-chloro-6-fluoro-1H-indole-2-carbonyl)-N,N-dimethyl-4H,5H,6H,7H-[1,3]thiazolo[5,4-c]pyridin-2-amine]	5.00 to 6.00	5.00 to 5.30	–
O=C(c1cc2c(F)c(F)c(F)cc2[nH]1)N1CCc2nc(NCC3CCOC3)sc2C1 (centres unmarked) [Example 105, 5-(4,5,6-trifluoro-1H-indole-2-carbonyl)-N-[(oxolan-3-yl)methyl]-4H,5H,6H,7H-[1,3]thiazolo[5,4-c]pyridin-2-amine]	> 6.00	> 5.30	–
Cc1nc2c(s1)CN(C(=O)c1cc3c(F)ccc(F)c3[nH]1)CC2 [Example 191, 4,7-difluoro-2-{2-methyl-4H,5H,6H,7H-[1,3]thiazolo[5,4-c]pyridine-5-carbonyl}-1H-indole]	> 6.00	5.00 to 5.30	–
COC1CCC(Nc2nc3c(s2)CN(C(=O)c2cc4ccccc4[nH]2)CC3)CC1 (centres unmarked) [Example 310, 5-(1H-indole-2-carbonyl)-N-(4-methoxycyclohexyl)-4H,5H,6H,7H-[1,3]thiazolo[5,4-c]pyridin-2-amine]	> 6.00	5.00 to 5.30	–
CC(O)c1cc(F)cc2[nH]c(C(=O)N3CCc4nc(NCC5CCOC5)sc4C3)cc12 (centres unmarked) [Example 258, 1-[6-fluoro-2-(2-{[(oxolan-3-yl)methyl]amino}-4H,5H,6H,7H-[1,3]thiazolo[5,4-c]pyridine-5-carbonyl)-1H-indol-4-yl]ethan-1-ol]	5.00 to 6.00	> 4.00	–
CC(C)(C)Nc1nc2c(s1)CN(C(=O)c1cc3ccccc3[nH]1)CC2 [Example 71, N-tert-butyl-5-(1H-indole-2-carbonyl)-4H,5H,6H,7H-[1,3]thiazolo[5,4-c]pyridin-2-amine]	> 6.00	> 5.30	–
Cc1nc2c(s1)CN(C(=O)c1cc3cc(F)cc(F)c3[nH]1)CC2 [Example 163]	> 6.00	> 5.30	–
CC(C)(C)OC(=O)N1CCC(O)(CNc2nc3c(s2)CN(C(=O)c2cc4ccccc4[nH]2)CC3)CC1 [Example 219, tert-butyl 4-hydroxy-4-({[5-(1H-indole-2-carbonyl)-4H,5H,6H,7H-[1,3]thiazolo[5,4-c]pyridin-2-yl]amino}methyl)piperidine-1-carboxylate]	> 6.00	5.00 to 5.30	–
O=C(c1cc2ccccc2[nH]1)N1CCc2nc(NCC(CO)CC3CCC3)sc2C1 (centres unmarked) [Example 227, 2-(cyclobutylmethyl)-3-{[5-(1H-indole-2-carbonyl)-4H,5H,6H,7H-[1,3]thiazolo[5,4-c]pyridin-2-yl]amino}propan-1-ol]	> 6.00	> 4.00	–
